# From ChEMBL document CHEMBL1201862, “PubChem BioAssay data set” (2004)
# Active and inactive are the calls of the source.
# What was measured:
# [1] = target: T1, Kappa-type opioid receptor (Homo sapiens, UniProt P41145); test: SAR analysis of small molecule agonists of the kappa opioid receptor via a luminescent beta-arrestin assay. [Related pubchem assays (depositor defined):AID1777, AID1786, AID1966, AID2133, AID2136, AID2348, AID2352, AID2357, AID2359, AID2370, AID2420, AID2478, AID2491, AID2492, AID2493, AID2497, AID2498, AID2500, AID449737, AID488822, AID488842]; type: functional
# T1 sequence (P41145 whole entry): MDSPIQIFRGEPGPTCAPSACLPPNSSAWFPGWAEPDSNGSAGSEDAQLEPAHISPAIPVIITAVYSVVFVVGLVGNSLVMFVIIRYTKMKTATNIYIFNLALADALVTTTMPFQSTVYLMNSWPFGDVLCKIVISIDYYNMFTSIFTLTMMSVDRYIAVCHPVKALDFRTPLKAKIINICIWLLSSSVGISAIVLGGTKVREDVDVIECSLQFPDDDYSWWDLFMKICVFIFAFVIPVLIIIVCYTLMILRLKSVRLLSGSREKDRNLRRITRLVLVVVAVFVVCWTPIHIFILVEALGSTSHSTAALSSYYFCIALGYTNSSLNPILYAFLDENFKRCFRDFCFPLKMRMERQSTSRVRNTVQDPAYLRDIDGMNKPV
# [2] = target: T2, Mu-type opioid receptor (Homo sapiens, UniProt P35372); test: MOR agonists by imaging, SAR follow-up, image-based (AID 2352); type: functional
# T2 sequence (P35372 whole entry): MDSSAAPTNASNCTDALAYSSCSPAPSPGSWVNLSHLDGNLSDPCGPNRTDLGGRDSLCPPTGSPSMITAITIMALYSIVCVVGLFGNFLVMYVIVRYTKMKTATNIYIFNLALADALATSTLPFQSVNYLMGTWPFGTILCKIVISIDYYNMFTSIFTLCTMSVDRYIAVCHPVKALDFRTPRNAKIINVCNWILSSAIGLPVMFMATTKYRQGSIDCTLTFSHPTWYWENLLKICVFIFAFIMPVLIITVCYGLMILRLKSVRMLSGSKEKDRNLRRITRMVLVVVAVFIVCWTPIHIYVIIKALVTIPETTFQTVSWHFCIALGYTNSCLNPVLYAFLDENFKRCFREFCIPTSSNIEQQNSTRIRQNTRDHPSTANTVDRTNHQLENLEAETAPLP
# [3] = target: T3, Delta-type opioid receptor (Homo sapiens, UniProt P41143); test: DOR agonists, SAR follow-up, image-based (AID 2370); type: functional
# T3 sequence (P41143 whole entry): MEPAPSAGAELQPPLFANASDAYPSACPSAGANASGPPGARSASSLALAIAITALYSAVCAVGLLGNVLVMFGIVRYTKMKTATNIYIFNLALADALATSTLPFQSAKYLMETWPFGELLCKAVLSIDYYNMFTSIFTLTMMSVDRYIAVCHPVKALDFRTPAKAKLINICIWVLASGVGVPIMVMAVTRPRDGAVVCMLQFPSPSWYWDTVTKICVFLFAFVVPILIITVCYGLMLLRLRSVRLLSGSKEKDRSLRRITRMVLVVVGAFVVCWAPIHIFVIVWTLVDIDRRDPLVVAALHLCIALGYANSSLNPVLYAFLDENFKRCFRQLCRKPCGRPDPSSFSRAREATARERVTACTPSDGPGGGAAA
# [4] = target: T1, Kappa-type opioid receptor; test: KOR antagonists by imaging, SAR follow-up, image-based (AID 2348); type: functional
# [5] = target: T2, Mu-type opioid receptor; test: MOR antagonists, SAR follow-up, image-based (AID 2420); type: functional;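 note: compounds added before stimulation of receptor with agonist DAMGO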
# [6] = target: T1, Kappa-type opioid receptor; test: KOR agonist analogs, imaging readout, SAR follow-up, image-based (AID 2359); type: functional
# [7] = target: T3, Delta-type opioid receptor; test: DOR antagonists, SAR follow-up, image-based (AID 2357); type: functional
# [8] = target: Envelope glycoprotein gp160 (Human immunodeficiency virus 1, UniProt Q6QLK5); test: inhibitors of HIV fusion peptide binding, primary screen, biochemical, uHTS, fluorescence dequenching (AID 1986)
# Sequence of Envelope glycoprotein gp160 (Q6QLK5 whole entry, the tested form may be a part): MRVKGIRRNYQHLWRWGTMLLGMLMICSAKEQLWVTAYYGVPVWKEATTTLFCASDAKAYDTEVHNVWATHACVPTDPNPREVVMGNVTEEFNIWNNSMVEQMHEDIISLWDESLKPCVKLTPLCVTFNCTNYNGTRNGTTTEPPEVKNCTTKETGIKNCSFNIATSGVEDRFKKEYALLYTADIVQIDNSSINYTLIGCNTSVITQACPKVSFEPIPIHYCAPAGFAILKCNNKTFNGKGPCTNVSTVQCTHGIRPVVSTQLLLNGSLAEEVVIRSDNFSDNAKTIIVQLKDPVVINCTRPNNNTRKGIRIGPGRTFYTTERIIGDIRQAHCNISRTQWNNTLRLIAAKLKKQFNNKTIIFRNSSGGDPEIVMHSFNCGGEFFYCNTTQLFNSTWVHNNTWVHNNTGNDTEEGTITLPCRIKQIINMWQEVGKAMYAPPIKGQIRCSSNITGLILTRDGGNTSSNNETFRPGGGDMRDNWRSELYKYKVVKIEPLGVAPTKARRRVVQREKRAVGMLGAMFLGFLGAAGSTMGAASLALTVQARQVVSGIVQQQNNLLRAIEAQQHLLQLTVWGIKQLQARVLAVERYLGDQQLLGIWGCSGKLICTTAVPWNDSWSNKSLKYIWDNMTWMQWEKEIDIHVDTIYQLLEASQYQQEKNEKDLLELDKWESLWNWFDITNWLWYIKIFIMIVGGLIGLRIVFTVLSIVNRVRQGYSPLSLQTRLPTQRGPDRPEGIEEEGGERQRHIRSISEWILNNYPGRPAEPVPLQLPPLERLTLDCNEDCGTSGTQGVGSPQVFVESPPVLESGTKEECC
# [9] = target: T4, Tyrosine-protein phosphatase non-receptor type 22 (Homo sapiens, UniProt Q9Y2R2); test: LYP1 Fluorescent Assay using OMFP substrate for In Vitro dose response studies. [Related pubchem assays (depositor defined):AID1779, AID1784, AID435024]
# T4 sequence (Q9Y2R2 whole entry): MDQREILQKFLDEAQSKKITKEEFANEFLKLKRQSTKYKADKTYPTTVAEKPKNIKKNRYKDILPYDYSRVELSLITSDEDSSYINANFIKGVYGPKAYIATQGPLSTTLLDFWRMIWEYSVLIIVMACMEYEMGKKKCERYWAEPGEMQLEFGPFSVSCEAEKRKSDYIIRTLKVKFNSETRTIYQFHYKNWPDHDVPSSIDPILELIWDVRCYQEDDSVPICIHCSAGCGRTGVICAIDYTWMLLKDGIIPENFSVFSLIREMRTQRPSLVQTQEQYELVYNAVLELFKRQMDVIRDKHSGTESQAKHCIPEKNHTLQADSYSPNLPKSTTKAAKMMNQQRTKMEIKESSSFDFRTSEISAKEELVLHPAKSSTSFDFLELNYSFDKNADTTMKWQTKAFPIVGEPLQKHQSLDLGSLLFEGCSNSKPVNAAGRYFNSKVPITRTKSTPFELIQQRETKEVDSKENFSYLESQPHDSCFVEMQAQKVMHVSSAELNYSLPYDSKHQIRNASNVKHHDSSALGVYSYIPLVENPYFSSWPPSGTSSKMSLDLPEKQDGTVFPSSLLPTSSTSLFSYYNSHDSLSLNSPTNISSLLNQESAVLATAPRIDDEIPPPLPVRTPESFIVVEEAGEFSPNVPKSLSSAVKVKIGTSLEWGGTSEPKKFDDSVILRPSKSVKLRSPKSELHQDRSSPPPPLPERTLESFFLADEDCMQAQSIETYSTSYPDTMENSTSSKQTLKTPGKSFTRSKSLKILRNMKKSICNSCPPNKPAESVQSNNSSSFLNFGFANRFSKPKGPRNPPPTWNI
# [10] = target: T5, RNA-binding protein pos-1 (Caenorhabditis elegans, UniProt G5EF15); test: inhibitors of POS-1/mex-3 RNA binding, dose response, biochemical, fluorescence polarization (AID 1964);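 note: purified POS-1 fused to maltose binding protein made in E. coli; potency of compounds blocking POS-1 binding to fluorescent RNA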
# T5 sequence (G5EF15 whole entry): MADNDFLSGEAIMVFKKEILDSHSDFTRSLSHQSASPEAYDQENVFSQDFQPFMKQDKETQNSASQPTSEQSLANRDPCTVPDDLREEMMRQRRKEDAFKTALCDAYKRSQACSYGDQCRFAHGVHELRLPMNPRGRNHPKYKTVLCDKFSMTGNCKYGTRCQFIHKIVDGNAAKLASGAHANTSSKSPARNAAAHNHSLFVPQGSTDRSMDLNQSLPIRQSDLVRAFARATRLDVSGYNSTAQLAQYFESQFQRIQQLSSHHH
# [11] = target: T6, Tyrosine-protein phosphatase non-receptor type 7 (Homo sapiens, UniProt P35236); type: functional
# T6 sequence (P35236 whole entry): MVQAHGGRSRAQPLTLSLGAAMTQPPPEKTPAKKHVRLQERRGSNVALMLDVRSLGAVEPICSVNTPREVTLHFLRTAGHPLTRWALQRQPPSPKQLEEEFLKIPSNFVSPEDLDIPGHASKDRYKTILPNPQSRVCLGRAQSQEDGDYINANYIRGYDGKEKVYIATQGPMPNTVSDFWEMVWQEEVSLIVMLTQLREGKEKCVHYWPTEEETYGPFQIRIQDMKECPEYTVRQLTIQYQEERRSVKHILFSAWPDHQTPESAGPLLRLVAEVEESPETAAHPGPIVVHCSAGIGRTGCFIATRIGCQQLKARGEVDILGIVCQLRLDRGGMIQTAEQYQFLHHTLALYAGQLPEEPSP
# [12] = target: T7, Zinc finger protein mex-5 (Caenorhabditis elegans, UniProt Q9XUB2); test: MEX-5/TCR-2 RNA interaction inhibitors, dose response, biochemical, C. elegans, fluorescence polarization (AID 1960)
# T7 sequence (Q9XUB2 whole entry): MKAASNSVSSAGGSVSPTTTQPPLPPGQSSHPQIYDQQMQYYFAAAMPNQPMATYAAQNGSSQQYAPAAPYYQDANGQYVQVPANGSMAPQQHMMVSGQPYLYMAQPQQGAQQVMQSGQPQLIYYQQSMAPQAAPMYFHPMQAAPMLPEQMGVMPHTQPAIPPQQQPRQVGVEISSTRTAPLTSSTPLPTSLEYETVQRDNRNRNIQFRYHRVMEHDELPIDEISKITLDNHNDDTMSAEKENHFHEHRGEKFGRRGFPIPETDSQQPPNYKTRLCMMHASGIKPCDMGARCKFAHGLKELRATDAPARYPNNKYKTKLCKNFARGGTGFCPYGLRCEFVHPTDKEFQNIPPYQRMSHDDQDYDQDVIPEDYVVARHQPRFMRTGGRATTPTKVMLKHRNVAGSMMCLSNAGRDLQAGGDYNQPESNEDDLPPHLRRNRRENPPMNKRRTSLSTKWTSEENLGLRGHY
# [13] = target: T6, Tyrosine-protein phosphatase non-receptor type 7; test: HTS HePTP Fluorescent Assay using OMFP substrate for In Vitro dose response studies. [Related pubchem assays (depositor defined):AID1059, AID1077, AID1784, AID2068, AID2085, AID435032, AID521]; type: functional
# [14] = HIV-1 Env-mediated cell fusion inhibitors, dose response, CCR5-tropic Env (AID 2279); type: functional
# [15] = target: T4, Tyrosine-protein phosphatase non-receptor type 22; test: inhibitors of LYP phosphatase, biochemical, fluorescence intensity, uHTS (AID 1779)
# [16] = target: T4, Tyrosine-protein phosphatase non-receptor type 22; test: SAR LYP1 Fluorescent Assay using pCAP substrate for In Vitro dose response studies - Set 2. [Related pubchem assays (depositor defined):AID1779, AID1784, AID2135, AID449727]; type: functional
# [17] = target: Tyrosine-protein phosphatase non-receptor type 12 (Homo sapiens, UniProt Q05209); test: SAR Selectivity Analysis of small molecule inhibitors of PEST using pCAP in a fluorescence assay. [Related pubchem assays (depositor defined):AID1779, AID1784, AID2135]; type: functional
# Sequence of Tyrosine-protein phosphatase non-receptor type 12 (Q05209 whole entry): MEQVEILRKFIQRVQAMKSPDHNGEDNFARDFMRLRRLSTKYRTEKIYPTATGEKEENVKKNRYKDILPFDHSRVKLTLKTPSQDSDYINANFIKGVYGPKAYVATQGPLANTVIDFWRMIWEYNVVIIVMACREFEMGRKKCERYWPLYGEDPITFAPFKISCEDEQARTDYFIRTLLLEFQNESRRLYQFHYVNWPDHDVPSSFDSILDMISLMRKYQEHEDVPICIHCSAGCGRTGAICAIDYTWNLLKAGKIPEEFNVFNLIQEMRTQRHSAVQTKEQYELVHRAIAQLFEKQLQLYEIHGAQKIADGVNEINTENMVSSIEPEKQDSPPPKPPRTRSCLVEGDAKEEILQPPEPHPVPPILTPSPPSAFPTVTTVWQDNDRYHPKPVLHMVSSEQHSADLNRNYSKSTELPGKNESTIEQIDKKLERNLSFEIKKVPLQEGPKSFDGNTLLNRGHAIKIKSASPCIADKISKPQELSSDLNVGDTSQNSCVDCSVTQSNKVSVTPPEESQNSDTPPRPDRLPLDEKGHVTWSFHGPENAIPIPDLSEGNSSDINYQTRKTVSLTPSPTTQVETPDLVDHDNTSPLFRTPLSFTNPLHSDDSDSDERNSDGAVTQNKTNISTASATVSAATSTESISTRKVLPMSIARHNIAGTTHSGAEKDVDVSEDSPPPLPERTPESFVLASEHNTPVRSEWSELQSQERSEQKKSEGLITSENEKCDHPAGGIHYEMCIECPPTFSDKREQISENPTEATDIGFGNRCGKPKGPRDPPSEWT
# [18] = target: T4, Tyrosine-protein phosphatase non-receptor type 22; test: SAR LYP1 Fluorescent Assay using OMFP substrate for In Vitro dose response studies - Set 3. [Related pubchem assays (depositor defined):AID1779, AID1784, AID2140, AID2686]; type: functional
# [19] = target: T6, Tyrosine-protein phosphatase non-receptor type 7; test: HePTP (PTPN7) phosphatase inhibitor potency, SAR follow-up, biochemical, set 2 (AID 449736); type: functional
# [20] = target: T4, Tyrosine-protein phosphatase non-receptor type 22; type: functional
# [21] = target: T4, Tyrosine-protein phosphatase non-receptor type 22; test: PubChem AID 2135
# [22] = target: T4, Tyrosine-protein phosphatase non-receptor type 22; test: PubChem AID 2140
# [23] = target: T4, Tyrosine-protein phosphatase non-receptor type 22; test: SAR LYP1 Fluorescent Assay using OMFP substrate for In Vitro dose response studies - Set 2. [Related pubchem assays (depositor defined):AID1779, AID1784, AID2140, AID449726, AID488869]; type: functional
# [24] = target: 26S proteasome non-ATPase regulatory subunit 14 (Homo sapiens, UniProt O00487); test: inhibition of proteasome subunit RPN11 – biochemical, fluorescence polarization, uHTS hits, confirmation (AID 602368); type: functional
# Sequence of 26S proteasome non-ATPase regulatory subunit 14 (O00487 whole entry): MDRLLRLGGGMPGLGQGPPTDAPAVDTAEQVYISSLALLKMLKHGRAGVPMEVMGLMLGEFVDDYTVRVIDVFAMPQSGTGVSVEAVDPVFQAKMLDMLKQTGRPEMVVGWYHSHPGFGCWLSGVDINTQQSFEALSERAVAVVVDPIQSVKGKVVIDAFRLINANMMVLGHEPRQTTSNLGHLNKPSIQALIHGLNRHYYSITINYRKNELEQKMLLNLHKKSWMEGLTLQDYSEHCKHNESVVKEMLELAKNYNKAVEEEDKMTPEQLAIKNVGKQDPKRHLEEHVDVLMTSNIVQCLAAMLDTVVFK
# [25] = target: 72 kDa type IV collagenase (Homo sapiens, UniProt P08253); test: Dose Response validation of uHTS RPN11 inhibitor hits using a MMP-2 Fluorescence assay.; type: functional
# Sequence of 72 kDa type IV collagenase (P08253 whole entry): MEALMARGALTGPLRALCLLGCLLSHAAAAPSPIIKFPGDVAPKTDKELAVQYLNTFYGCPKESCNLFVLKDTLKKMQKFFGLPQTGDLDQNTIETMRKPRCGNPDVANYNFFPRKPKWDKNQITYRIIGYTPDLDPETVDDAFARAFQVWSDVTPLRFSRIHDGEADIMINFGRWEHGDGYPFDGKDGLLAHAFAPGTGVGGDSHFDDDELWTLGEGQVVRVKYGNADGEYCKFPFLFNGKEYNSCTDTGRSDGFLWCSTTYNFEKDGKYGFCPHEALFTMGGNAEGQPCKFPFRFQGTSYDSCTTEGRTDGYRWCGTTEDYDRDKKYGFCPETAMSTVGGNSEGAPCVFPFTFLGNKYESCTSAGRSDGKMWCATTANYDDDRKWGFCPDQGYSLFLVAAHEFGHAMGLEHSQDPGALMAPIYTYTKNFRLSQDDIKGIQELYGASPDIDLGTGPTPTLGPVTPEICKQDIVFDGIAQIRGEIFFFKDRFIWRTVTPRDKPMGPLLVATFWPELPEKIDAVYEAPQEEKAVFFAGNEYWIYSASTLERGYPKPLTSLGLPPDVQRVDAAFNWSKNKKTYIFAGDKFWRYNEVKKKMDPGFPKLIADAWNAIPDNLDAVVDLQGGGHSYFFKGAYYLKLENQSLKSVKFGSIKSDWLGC
# [26] = target: Prothrombin (Bos taurus, UniProt P00735); test: thrombin inhibition, dose response, biochemical, fluorescence polarization, uHTS hits (AID 602369); type: functional
# [27] = target: Tumor necrosis factor (Homo sapiens, UniProt P01375); test: TNFa-triggered NF-kB activation inhibitors, SAR follow-up, cell-based, revised (AID 2337); type: functional
# [28] = target: Nucleotide-binding oligomerization domain-containing protein 1 (Homo sapiens, UniProt Q9Y239); test: NOD1 signaling inhibitors, SAR follow-up, revised (AID 2333); type: functional
# Sequence of Nucleotide-binding oligomerization domain-containing protein 1 (Q9Y239 whole entry, the tested form may be a part): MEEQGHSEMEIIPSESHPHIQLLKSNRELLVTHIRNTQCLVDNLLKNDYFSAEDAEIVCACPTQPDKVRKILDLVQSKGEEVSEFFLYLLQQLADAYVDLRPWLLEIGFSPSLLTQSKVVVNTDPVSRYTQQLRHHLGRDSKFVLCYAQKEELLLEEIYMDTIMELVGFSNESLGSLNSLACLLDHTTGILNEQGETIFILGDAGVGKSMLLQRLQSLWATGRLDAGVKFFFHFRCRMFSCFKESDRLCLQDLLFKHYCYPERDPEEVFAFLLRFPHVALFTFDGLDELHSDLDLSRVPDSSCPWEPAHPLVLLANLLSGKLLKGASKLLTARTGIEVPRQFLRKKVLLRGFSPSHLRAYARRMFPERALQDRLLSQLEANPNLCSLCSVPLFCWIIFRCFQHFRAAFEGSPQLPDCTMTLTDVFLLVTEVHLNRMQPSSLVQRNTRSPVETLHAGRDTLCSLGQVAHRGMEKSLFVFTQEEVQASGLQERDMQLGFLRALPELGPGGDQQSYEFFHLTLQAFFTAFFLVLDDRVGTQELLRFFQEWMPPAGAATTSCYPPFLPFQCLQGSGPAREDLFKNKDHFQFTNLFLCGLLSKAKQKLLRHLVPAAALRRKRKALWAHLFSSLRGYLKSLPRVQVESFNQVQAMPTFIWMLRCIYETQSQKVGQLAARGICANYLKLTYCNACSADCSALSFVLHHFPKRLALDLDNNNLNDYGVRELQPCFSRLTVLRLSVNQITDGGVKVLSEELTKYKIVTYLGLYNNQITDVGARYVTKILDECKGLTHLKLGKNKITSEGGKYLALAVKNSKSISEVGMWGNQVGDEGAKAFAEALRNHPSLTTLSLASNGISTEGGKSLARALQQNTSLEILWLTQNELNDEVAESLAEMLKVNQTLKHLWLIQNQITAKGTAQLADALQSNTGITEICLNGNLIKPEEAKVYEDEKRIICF
# [29] = target: Nucleotide-binding oligomerization domain-containing protein 2 (Homo sapiens, UniProt Q9HC29); test: PubChem AID 2334; type: functional
# [30] = system: HEK293; test: cells; conditions: Homo sapiens;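 note: cells exposed to compound for 14 hours overnight before viability readout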
# [31] = target: Exodeoxyribonuclease V (Escherichia coli (strain K12), UniProt P04993+P07648+P08394); test: E. coli RecBCD inhibitors, dose response, counter-screen for AddAB inhibitor project, absorbance, V66 E. coli, mutant T4 phage (AID 492957); type: functional, cell-based, Escherichia coli str. K-12 substr. MG1655
# [32] = Counterscreen for AddAB inhibitors: absorbance-based bacterial cell-based high throughput dose response assay for inhibitors of bacterial viability. [Related pubchem assays (depositor defined):AID435030, AID449728, AID449731, AID488942, AID488955, AID488956]; type: functional
# [33] = target: T1, Kappa-type opioid receptor; test: SAR analysis of small molecule agonists of the kappa opioid receptor via a luminescent beta-arrestin assay - Set 3. [Related pubchem assays (depositor defined):AID1777, AID1785, AID1786, AID1966, AID2133, AID2136, AID2284, AID2500]; type: functional
# [34] = target: T8, Mannose-6-phosphate isomerase (Homo sapiens, UniProt P34949); test: PMI enzyme inhibitors, confirmation, biochemical, fluorescence intensity (AID 1535)
# T8 sequence (P34949 whole entry): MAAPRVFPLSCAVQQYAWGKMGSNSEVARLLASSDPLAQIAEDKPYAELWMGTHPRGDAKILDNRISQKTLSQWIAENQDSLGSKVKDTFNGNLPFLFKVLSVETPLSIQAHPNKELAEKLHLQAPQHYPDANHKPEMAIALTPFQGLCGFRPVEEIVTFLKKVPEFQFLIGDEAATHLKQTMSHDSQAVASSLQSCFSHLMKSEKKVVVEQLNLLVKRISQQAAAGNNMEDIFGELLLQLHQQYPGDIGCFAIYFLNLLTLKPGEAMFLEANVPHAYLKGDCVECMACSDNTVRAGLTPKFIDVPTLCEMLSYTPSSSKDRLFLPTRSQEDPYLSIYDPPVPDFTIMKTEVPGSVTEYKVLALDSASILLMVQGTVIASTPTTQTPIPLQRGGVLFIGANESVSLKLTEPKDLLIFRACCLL
# [35] = target: Phosphomannomutase 2 (Homo sapiens, UniProt O15305); test: Counter screen SAR assay for PMM2 inhibitors via a fluorescence intensity assay. [Related pubchem assays (depositor defined):AID1545, AID1574]
# Sequence of Phosphomannomutase 2 (O15305 whole entry): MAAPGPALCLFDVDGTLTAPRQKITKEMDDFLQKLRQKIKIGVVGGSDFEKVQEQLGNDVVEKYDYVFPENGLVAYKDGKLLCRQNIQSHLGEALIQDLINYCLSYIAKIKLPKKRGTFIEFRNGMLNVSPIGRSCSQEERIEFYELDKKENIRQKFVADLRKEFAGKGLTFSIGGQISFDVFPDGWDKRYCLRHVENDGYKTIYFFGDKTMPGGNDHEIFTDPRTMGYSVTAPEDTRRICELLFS
smiles,measurement,setting,value
Cc1ccc2[nH]c(=O)c(CN(C)C(=O)c3ccccn3)cc2c1,EC50,[1],> 10 µM (inactive)
same,EC50,[2],> 32 µM (inactive)
same,EC50,[3],> 32 µM (inactive)
same,IC50,[4],> 32 µM (inactive)
same,IC50,[5],> 32 µM (inactive)
same,EC50,[6],> 32 µM (inactive)
same,IC50,[7],> 32 µM (inactive)
O=C(O)CCCN1C(=O)/C(=C/c2ccc(-c3nc4ccccc4s3)o2)SC1=S,IC50,[8],11.7 µM (active)
same,IC50,[9],6.14 µM (active)
same,EC50,[10],3.39 µM (active)
same,IC50,[11],11.5 µM (active)
same,EC50,[12],20.4 µM (active)
same,IC50,[13],24.6 µM (active)
same,IC50,[14],4.43 µM (active)
same,IC50,[15],7.71 µM (active)
same,IC50,[16],3.1 µM (active)
same,IC50,[17],1.63 µM (active)
same,IC50,[18],11.2 µM (active)
same,IC50,[19],0.608 µM (active)
same,IC50,[20],4.77 µM (active)
same,IC50,[21],3.69 µM (active)
same,IC50,[22],16 µM (active)
same,IC50,[23],3.92 µM (active)
same,IC50,[24],5.26 µM (active)
same,IC50,[25],> 100 µM (inactive)
same,IC50,[26],34.5 µM (active)
O=C(Nc1nc2ccccc2n1Cc1ccccc1Cl)C1CCCCC1,IC50,[27],> 20 µM (inactive)
same,IC50,[28],> 20 µM (inactive)
same,IC50,[29],> 20 µM (inactive)
same,IC50,[30],> 20 µM (inactive)
Cc1cccnc1NC(=O)c1ccc([N+](=O)[O-])o1,IC50,[31],> 119 µM (inactive)
same,IC50,[32],29.9 µM (inactive)
c1ccc(CSc2nnc(-c3ccccn3)n2Cc2ccccc2)cc1,EC50,[33],> 20 µM (inactive)
CCOc1ccc(-c2nnc(S)o2)cc1,IC50,[34],> 50 µM (inactive)
same,IC50,[35],> 100 µM (inactive)
